“And” between values parts separate entries of the source, which are not always exact repeats. Identical values can stand only once.
What was measured:
[1] = target: T1, human Cdc7/human ASK complex protein (Homo sapiens, UniProt O00311); experiment: Cdc7/ASK enzymatic assay; assay type: biochemical; details: 5 μM ATP; mean of duplicated assays; read-out: Cdc7 IC50
T1 construct: purchased Carna Biosciences, Inc
Experimental: Measurement of Cdc7 kinase activity was carried out using MSA assay kit (QuickScout™ Screening Assist Kit, Carna Biosciences, Inc.). Assay buffer (20 mM HEPES, 0.01% Triton X-100™, 2 mM dithiothreitol, pH 7.5) was used to prepare a substrate mixture solution comprising 4 μM of kinase-reaction substrate (FITC-labeled MCM2 peptide), 40 mM MgCl2, and 4 times concentrations of final targeted ATP (5, 100, and 1,000 μM). The enzyme supplied in the kit (human Cdc7/human ASK complex protein) was diluted into the assay buffer to prepare a 7 nM solution (enzyme solution). The compound stock solution was prepared by diluting a 10 mM DMSO solution into the assay buffer (final 4% DMSO). The kinase reaction was performed by mixing of 5 μL of the compound solution, 5 μL of the substrate mixture solution, and 10 μL of the enzyme solution in a 384-well plate. For the pre-incubation assay, the compound solution and the enzyme solution were pre-mixed and incubated at ambient temperature for 30 min before adding into the substrate mixture solution to start enzymatic reaction. After the reaction at 25° C. for 5 hours, 60 μL of the termination buffer (supplied in the kit) was added to stop the reaction. The phosphorylation of substrate was measured using a LabChip EZ Reader II system (Caliper Life Sciences). The percent inhibition (%) by a tested compound was calculated according to the following formula:
Percent inhibition (%)=(1−(C−A)/(B−A))×100
A represents P/(P+S) for a blank well, B represents P/(P+S) for a solvent well, and C represents P/(P+S) for a compound-added well. S: the peak heights of the separated substrate, P: phosphorylated substrate.
The IC50 value of tested compound was calculated by regression analysis of the percent inhibition values versus the (logarithmic) concentration of the tested compound.

[2] = In vitro metabolic stability, human liver microsomes; assay type: in vitro ADME; details: for HLM % (remaining % of parent compound): 30 min treatment of human liver microsomes
Experimental: (§1) NADPH regeneration system (13 mM NADP, 33 mM Glucose-6-phospate, 33 mM MgCl2, and 4 U/mL of Glucose-6-phosphate dehydrogenase) and liver microsomes (1 mg/mL of HLM (BD Gentest, lot 18888) or MLM (BD Gentest, lot 31197)) in 0.1 M phosphate buffer (pH 7.4) were pre-incubated separately at 37° C. for 20 min before mixing with 1:4 ratio. 50 μL of the mixed solution was added to 50 μL of the test compound (2 μM) to initiate the reaction at 37° C. (final conc. 1 μM test compound, 0.4 mg/mL liver microsomes, and 1.3 mM NADPH). After 30 min, the reactions were stopped by adding 300 μL of cold acetonitrile. For 0 min samples, ice-cold acetonitrile (with system suitability standard) was treated before mixing the test compound and microsomes. The sample were vortexed well and then centrifuged at 3500 rpm at 15° C. for 20 min. 110 μL of supernatant was mixed with 110 μL of water and quantitated by LC-MS/MS workstation (Shimazu Corp.).

[3] = In vitro metabolic stability, mouse liver microsomes; assay type: in vitro ADME; details: for MLM % (remaining % of parent compound): 30 min treatment of mouse liver microsomes
Experimental: as §1

[4] = Stability of the ethyl ester to hydrolysis; assay type: physicochemical
Experimental: Because the ester was expected to form important hydrogen bond with Lys90, an SAR study for the ester group was performed (Table 2). […] Generally esters are labile and can be easily hydrolyzed to the corresponding carboxylic acid. To our surprise, the ethyl ester of 3 was very stable even under strong basic conditions, and it required an extremely strong basic condition (50% w/v KOH aq., reflux) to hydrolyze this ester.
The general procedure for the replacement of R^2 by various groups is shown in Scheme 2. Methyl ester 8 was obtained analogously to ethyl ester 3 from the furanone intermediate 39 which was prepared from methyl 4-chloroacetoacetate 37 and phenyl isocyanate 38 (Scheme 2A). Compound 9 (Scheme 2B) was obtained by hydrolysis of compound 3 under extremely strong basic condition (50% w/v KOH aq., reflux). […] The amide analogs (10-12) were prepared directly by aminolysis of ethyl ester 3 with appropriate amines (Scheme 2C).

[5] = target: T1, human Cdc7/human ASK complex protein; experiment: Cdc7/ASK enzymatic assay; assay type: biochemical; details: 5 μM ATP versus 10 μM ATP as printed

T1 sequence (O00311 whole entry): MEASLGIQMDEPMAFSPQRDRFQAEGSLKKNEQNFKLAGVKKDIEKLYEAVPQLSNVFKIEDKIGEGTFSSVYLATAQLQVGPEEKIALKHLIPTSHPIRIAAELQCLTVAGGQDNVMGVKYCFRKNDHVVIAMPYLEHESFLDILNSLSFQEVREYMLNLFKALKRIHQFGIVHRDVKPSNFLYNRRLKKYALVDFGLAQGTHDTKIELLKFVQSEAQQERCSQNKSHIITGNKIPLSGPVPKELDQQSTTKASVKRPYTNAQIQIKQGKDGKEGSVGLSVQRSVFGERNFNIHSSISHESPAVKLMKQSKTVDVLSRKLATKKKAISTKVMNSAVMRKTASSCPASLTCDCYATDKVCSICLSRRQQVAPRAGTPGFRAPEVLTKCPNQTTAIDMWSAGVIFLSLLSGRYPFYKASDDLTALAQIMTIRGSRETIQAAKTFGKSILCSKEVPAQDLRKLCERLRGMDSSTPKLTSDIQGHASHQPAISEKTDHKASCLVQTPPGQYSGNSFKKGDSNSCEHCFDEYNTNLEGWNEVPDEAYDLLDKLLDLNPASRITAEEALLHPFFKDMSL
T1 sequence (Q9UBU7 whole entry partner): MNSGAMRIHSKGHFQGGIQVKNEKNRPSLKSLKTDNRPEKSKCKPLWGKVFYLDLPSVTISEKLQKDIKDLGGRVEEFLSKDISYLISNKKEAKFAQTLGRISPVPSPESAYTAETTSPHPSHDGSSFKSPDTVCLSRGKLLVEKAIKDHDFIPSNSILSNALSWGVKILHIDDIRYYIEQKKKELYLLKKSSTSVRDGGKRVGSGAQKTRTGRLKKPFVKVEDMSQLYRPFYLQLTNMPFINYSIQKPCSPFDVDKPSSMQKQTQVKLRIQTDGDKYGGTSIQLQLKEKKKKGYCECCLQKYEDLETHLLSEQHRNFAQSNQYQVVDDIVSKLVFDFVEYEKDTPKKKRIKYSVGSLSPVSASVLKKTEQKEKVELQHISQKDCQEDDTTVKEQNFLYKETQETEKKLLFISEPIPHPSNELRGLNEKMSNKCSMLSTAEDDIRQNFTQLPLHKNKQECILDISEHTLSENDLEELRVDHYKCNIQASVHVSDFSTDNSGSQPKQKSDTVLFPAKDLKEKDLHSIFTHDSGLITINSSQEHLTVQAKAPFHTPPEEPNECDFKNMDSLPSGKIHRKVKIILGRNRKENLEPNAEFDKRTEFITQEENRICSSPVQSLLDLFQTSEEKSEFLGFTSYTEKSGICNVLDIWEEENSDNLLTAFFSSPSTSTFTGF

IC50 [1]	HLM % (remaining % of parent compound) [2] [%]	metabolic stability in human liver microsome (in words) ([2]; human)	MLM % (remaining % of parent compound) [3] [%]	metabolic stability in mice (in words) ([3]; mouse)	stability of the ethyl ester ([4]; conventional ester hydrolysis conditions: 2N HCl aq./EtOH, 60° C. or 2N NaOH aq./EtOH, 60° C.)	stability of the ethyl ester ([4]; strong basic conditions, hydrolysis required 50% w/v KOH aq., reflux)	fold stronger inhibitory potency at 5 μM ATP than inhibition at 10 μM ATP concentration [5] [fold]	SMILES
3.3 nM and 3.8 nM	23	moderate metabolic stability	7.9	rapidly metabolized	very stable	very stable	21	CCOC(=O)C1=C(Nc2ccccc2)OC(=Cc2c[nH]c3ncccc23)C1=O [Compound 3, Ethyl 5-((1H-pyrrolo[2,3-b]pyridin-3-yl)methylene)-4-oxo-2-(phenylamino)-4,5-dihydrofuran-3-carboxylate]
2.5 nM	57	–	12	–	–	–	–	CCOC(=O)C1=C(Nc2ccc(F)cc2F)OC(=Cc2c[nH]c3ncccc23)C1=O [Compound 23, Ethyl 5-((1H-pyrrolo[2,3-b]pyridin-3-yl)methylene)-2-((2,4-difluorophenyl)amino)-4-oxo-4,5-dihydrofuran-3-carboxylate]
3.9 nM	63	–	30	–	–	–	–	CCOC(=O)C1=C(Nc2ccc(C)cc2C)OC(=Cc2c[nH]c3ncccc23)C1=O [Compound 24, Ethyl 5-((1H-pyrrolo[2,3-b]pyridin-3-yl)methylene)-2-((2,4-dimethylphenyl)amino)-4-oxo-4,5-dihydrofuran-3-carboxylate]

— patent US20200055848A1, “FURANONE DERIVATES AND METHODS OF USE THEREOF” (CARNA BIOSCIENCES, INC., priority 2016, published 2020)
